Legend:
[1] = tested on: mice; assay: Toxicity test in mice; format: in vivo
Description: The compound expressed by the formula 1 was dissolved in dimethyl sulfoxide (DMSO). The solution was diluted with water and administered to mice (10 heads per group) by 100 μg/kg.

[2] = Physical and chemical properties: solubility in solvents; format: physicochemical
Description: The structure of the obtained white powder compound was analyzed by NMR. The compound is expressed by Formula 1 (molecular formula=C25H32O4; molecular weight=396.52).

[3] = tested on: SW620 (human colon cancer cell); assay: Cell growth inhibition (WST-1), SW620; format: cell-based; conditions: SW-620, 48 hr culture, read-out: GI50, the concentration when the cancer cell growth is inhibited by 50%
Description: (§1) NIH3T3 (mouse fibroblast), K-ras (K-ras gene transformed NIH3T3 cell), H-ras (H-ras gene transformed NIH3T3 cell) and SW620 (human colon cancer cell) solid tumor cell lines were cultured in 10% of bovine serum albumin or RPMI 1640 medium (containing L-glutamine and not containing sodium bicarbonate; Gibco Cat. No 31800-022) under 37° C. and 5% CO2 condition. The subculture was carried out 2 times a week. The cells were separated from the wall using 0.5% of trypsin and 5.3 mM EDTA (ethylenediamine tetra acetic acid) dissolved in phosphate buffer solution (PBS). In each well of 96-well plate (Falcon), 3×10^3-6×10^3 cells were added and cultured at 37° C. in the presence of 5% CO2 of medium for 24 hr. The new compound was dissolved in dimethyl sulfoxide (DMSO) and diluted to the concentration required for the test. The final concentration of DMSO was set to be lower than 0.5%.
(§2) After removing all medium from the 96-well plate, […] of the new compound was added to each well. After 48 hr of culture, WST-1 was added to each well. Then the culture plate was placed for 3 hr at 37° C. in the presence of 5% CO2. When the reaction was completed, light absorption at 450-690 nm was measured by using an ELISA reader to identify the cancer cell growth inhibition effect.

[4] = tested on: HL-60 cell; assay: Leukemia cell growth inhibition, HL-60; format: cell-based; conditions: Homo sapiens, read-out: GI50, the concentration when the cancer cell growth is inhibited by 50%
Description: as §2

[5] = target: T1, farnesyl transferase (Rattus norvegicus, UniProt Q02293+Q04631); assay: Farnesyl transferase inhibition, scintillation proximity assay with 3H-FPP and biotin-lamin B peptide; format: biochemical
T1 construct: 100-150 g of brain was separated from a male rat (Sprague Dowley); from tissue; host or cells: rat (Sprague Dawley) brain
Description: 100-150 g of brain was separated from a male rat (Sprague Dowley). It was washed with a physiological salt solution and homogenized. Then, farnesyl transferase enzymogen was separated by centrifuging and partially purifying the homogenate with a Q Sepharose Fast Flow Column. The enzyme activity was determined by scintillation proximity assay (SPA), using the ^3H-farnesyl pyrophosphate (FPP) substrate.
To be specific, the method of Michael S. Brown, etc. (Yuval Reiss, Joseph L. Goldstein, Miguel C. Seabra, Patrick J. Casey and Michael S. Brown, 1990, Inhibition of Purified p21ras Farnesyl Protein Transferase by Cys-AAX Tetrapeptides, 62, 81-88) was modified a little. 10 μl of the sample liquid, 10 μl of analysis buffer solution (50 mM Tris-HCL pH7.5, 25 mM MgCl2, 2 mM KCl, 5 mM DTT, 5 mM Na2HPO4, 0.01% Triton X-100), 20 μl of diluted ^3H-FPP, 20 μl biotin-lamin B peptide and 40 μl of farnesyl transferase were mixed well and rendered to react for 30 min at room temperature. Then, 150 μl of SPA bead/stop reagent solution was added. The farnesylation level of biotin-lamin B peptide was measured by using a scintillation counter in CPM (counts per minute) unit. The farnesyl transferase activity inhibition was calculated via Equation 1. [formula] […]

[6] = tested on: Molt-4 cell; assay: Leukemia cell growth inhibition, Molt-4; format: cell-based; conditions: Homo sapiens, read-out: GI50, the concentration when the cancer cell growth is inhibited by 50%
Description: as §2

[7] = tested on: K-ras (K-ras gene transformed NIH3T3 cell); assay: Cell growth inhibition (WST-1), K-ras; format: cell-based; conditions: Mus musculus, 48 hr culture, read-out: GI50, the concentration when the cancer cell growth is inhibited by 50%
Description: as §1, §2

[8] = tested on: H-ras (H-ras gene transformed NIH3T3 cell); assay: Cell growth inhibition (WST-1), H-ras; format: cell-based; conditions: Mus musculus, 48 hr culture, read-out: GI50, the concentration when the cancer cell growth is inhibited by 50%
Description: as §1, §2

[9] = tested on: NIH3T3 (mouse fibroblast); assay: Cell growth inhibition (WST-1), NIH3T3; format: cell-based; conditions: 48 hr culture, read-out: GI50, the concentration when the cancer cell growth is inhibited by 50%
Description: as §1, §2

C=C1C(=O)O[C@@H]2[C@@H]1CC[C@](C)(O)C13C=CC(C)([C@@H]21)[C@]1(C3)C(=O)C[C@@]2(C(C)C)C[C@H]21 (some centres unmarked) [Formula 1, Artemisolide]
acute toxicity in the animal test [1]: no acute toxicity | Insoluble in [2]: Hexane | Soluble in [2]: MeOH; acetone; EtOAc | GI50 [3]: 2.5 µg/mL | GI50 [4]: ~1.5 µM | inhibition at 100 µg/mL ([5]; at 100 μg/ml): ~50% | IC50 ([5]; read-out: IC50 (concentration for inhibiting activity by 50%) on farnesyl transferase (converted)): ~252 µM | GI50 [6]: 3.2 µM | GI50 [7]: ~0.8 µg/mL | GI50 [8]: 1.2 µg/mL | GI50 [9]: ~5.5 µg/mL

Source: patent US6808724B2, “Artemisolide compound isolated from the aerial parts of Artemisia sylvatica, isolation method, and use thereof” (Korea Research Institute of Bioscience and Biotechnology, priority 2002, dated 2004)
